Source: the CheMixHub viscosity set

Test: xn = mol fraction of the nth substance listed

COCCOCCOC + c1ccc2c(c1)CCCC2
viscosity [mPa·s], 101.33 kPa
Settings | x1 = 0.1028 | x1 = 0.1977 | x1 = 0.3019 | x1 = 0.3993 | x1 = 0.5009 | x1 = 0.666 | x1 = 0.7016 | x1 = 0.7949 | x1 = 0.8987
298.15 K | 1.786 | 1.637 | 1.5 | 1.396 | 1.294 | 1.197 | 1.144 | 1.087 | 1.032
303.15 K | 1.619 | 1.487 | 1.367 | 1.275 | 1.185 | 1.071 | 1.05 | 1 | 0.95
308.15 K | 1.472 | 1.355 | 1.249 | 1.17 | 1.087 | 0.984 | 0.967 | 0.922 | 0.879
313.15 K | 1.348 | 1.245 | 1.15 | 1.078 | 1.004 | 0.913 | 0.897 | 0.859 | 0.815

CC=CC(=O)O + c1ccccc1
viscosity [mPa·s], 101 kPa
Settings | 298.15 K | 303.15 K | 313.15 K | 323.15 K
x1 = 0.0503 | 0.6275 | 0.5854 | 0.5132 | 0.4526
x1 = 0.102 | 0.6591 | 0.6129 | 0.5349 | 0.472
x1 = 0.1492 | 0.6902 | 0.6364 | 0.5555 | 0.4889

CCCCCCN + c1ccccc1
303.15 K, 101 kPa
Settings | viscosity [mPa·s]
x2 = 0.105 | 0.6977
x2 = 0.2983 | 0.645
x2 = 0.4918 | 0.6006
x2 = 0.5946 | 0.5814
x2 = 0.6955 | 0.5639
x2 = 0.7954 | 0.5506
x2 = 0.8997 | 0.549

CNc1ccccc1 + c1ccccc1
298.15 K, 101 kPa
Settings | viscosity [mPa·s]
x2 = 0.069 | 1.851
x2 = 0.11 | 1.728
x2 = 0.17 | 1.601
x2 = 0.264 | 1.433
x2 = 0.376 | 1.226
x2 = 0.387 | 1.202
x2 = 0.428 | 1.156
x2 = 0.513 | 1.055
x2 = 0.582 | 0.966
x2 = 0.697 | 0.842
x2 = 0.802 | 0.747
x2 = 0.852 | 0.71
x2 = 0.93 | 0.656

OC(C(F)(F)F)C(F)(F)F + c1ccccc1
viscosity [mPa·s], 101 kPa
Settings | x1 = 0.04927 | x1 = 0.1096 | x1 = 0.1764 | x1 = 0.2481 | x1 = 0.3333 | x1 = 0.4173 | x1 = 0.5478 | x1 = 0.6489 | x1 = 0.8774
298.15 K | 0.595 | 0.589 | 0.583 | 0.585 | 0.612 | 0.648 | 0.743 | 0.834 | 1.216
313.15 K | 0.481 | 0.475 | 0.466 | 0.471 | 0.486 | 0.508 | 0.561 | 0.617 | 0.818
323.15 K | 0.425 | 0.423 | 0.412 | 0.414 | 0.425 | 0.441 | 0.482 | 0.521 | 0.658

Oc1ccccc1 + c1ccccc1
Settings | viscosity [mPa·s]
293.15 K, 101 kPa, x1 = 0.0507 | 0.683
293.15 K, 101 kPa, x1 = 0.0831 | 0.724
293.15 K, 101 kPa, x1 = 0.1719 | 0.865
293.15 K, 101 kPa, x1 = 0.2846 | 1.126
293.15 K, 101 kPa, x1 = 0.3763 | 1.401
293.15 K, 101 kPa, x1 = 0.4837 | 1.911
293.15 K, 101 kPa, x1 = 0.5924 | 2.642
293.15 K, 101 kPa, x1 = 0.7038 | 3.811
293.15 K, 101 kPa, x1 = 0.8043 | 5.35
298.15 K, 101.33 kPa, x1 = 0.083 | 0.6592
298.15 K, 101.33 kPa, x1 = 0.181 | 0.8516
298.15 K, 101.33 kPa, x1 = 0.2 | 0.841
298.15 K, 101.33 kPa, x1 = 0.239 | 0.9218
298.15 K, 101.33 kPa, x1 = 0.279 | 1.037
298.15 K, 101.33 kPa, x1 = 0.37 | 1.157
298.15 K, 101.33 kPa, x1 = 0.478 | 1.696
298.15 K, 101.33 kPa, x1 = 0.5 | 1.711
298.15 K, 101.33 kPa, x1 = 0.522 | 1.849
298.15 K, 101.33 kPa, x1 = 0.619 | 2.54
298.15 K, 101.33 kPa, x1 = 0.658 | 2.783
298.15 K, 101.33 kPa, x1 = 0.692 | 3.172
298.15 K, 101.33 kPa, x1 = 0.762 | 3.936
298.15 K, 101.33 kPa, x1 = 0.786 | 4.424
323.15 K, 101.33 kPa, x1 = 0.2 | 0.568
323.15 K, 101.33 kPa, x1 = 0.5 | 0.968

O=C1NC(=O)c2ccccc21 + c1ccncc1
298.15 K, 101 kPa
Settings | viscosity [mPa·s]
x1 = 0.0278 | 0.9878
x1 = 0.06788 | 1.182

Oc1ccccc1 + c1ccncc1
viscosity [mPa·s], 101 kPa
Settings | 293.15 K | 303.15 K | 313.15 K
x1 = 0.0707 | 1.109 | 0.94 | 0.828
x1 = 0.1391 | 1.321 | 1.106 | 0.965
x1 = 0.213 | 1.597 | 1.339 | 1.152
x1 = 0.2888 | 2.01 | 1.634 | 1.389
x1 = 0.349 | 2.411 | 1.963 | 1.631
x1 = 0.4283 | 3.215 | 2.515 | 2.042
x1 = 0.5063 | 4.37 | 3.245 | 2.56
x1 = 0.5971 | 5.945 | 4.29 | 3.245
x1 = 0.6675 | 7.48 | 5.17 | 3.8
x1 = 0.7481 | 9.07 | 6.04 | 4.305
x1 = 0.8284 | 10.04 | 6.625 | 4.59
x1 = 0.9114 | 10.72 | 6.915 | 4.705
